Activity and IC50 data for one compound are collected here from ChEMBL document CHEMBL5696441 (Nat Chem Biol, 2011).

In assay [1] the target is Dual specificity protein kinase CLK3 (Homo sapiens) (UniProt P49761). The experiment in a line: Inhibition of human CLK3 assessed as residual activity at 1 uM using RB-S6P as substrate in presence of 33P-ATP by ProQinase assay relative to control.
Assay [2] addresses Phosphatidylinositol 4,5-bisphosphate 3-kinase catalytic subunit alpha isoform (Homo sapiens) (UniProt P42336). In words: Inhibition of PIK3CA (unknown origin) assessed as remaining activity at 1 uM by Kinome scan method relative to control.
Assay [3] concerns Platelet-derived growth factor receptor alpha (Homo sapiens), P16234 [T674I]. In words: Inhibition of human PDGFRalpha T674I mutant assessed as residual activity at 1 uM using Poly(Ala,Glu,Lys,Tyr)6:2:5:1 as substrate in presence of 33P-ATP by ProQinase assay relative to control.
For assay [4], the target named is Ephrin type-A receptor 4 (Homo sapiens) (UniProt P54764). In words: Inhibition of EPHA4 (unknown origin) assessed as remaining activity at 1 uM by Kinome scan method relative to control.
Sequence of Ephrin type-A receptor 4 (Homo sapiens) (P54764 whole entry, the tested form may be a part): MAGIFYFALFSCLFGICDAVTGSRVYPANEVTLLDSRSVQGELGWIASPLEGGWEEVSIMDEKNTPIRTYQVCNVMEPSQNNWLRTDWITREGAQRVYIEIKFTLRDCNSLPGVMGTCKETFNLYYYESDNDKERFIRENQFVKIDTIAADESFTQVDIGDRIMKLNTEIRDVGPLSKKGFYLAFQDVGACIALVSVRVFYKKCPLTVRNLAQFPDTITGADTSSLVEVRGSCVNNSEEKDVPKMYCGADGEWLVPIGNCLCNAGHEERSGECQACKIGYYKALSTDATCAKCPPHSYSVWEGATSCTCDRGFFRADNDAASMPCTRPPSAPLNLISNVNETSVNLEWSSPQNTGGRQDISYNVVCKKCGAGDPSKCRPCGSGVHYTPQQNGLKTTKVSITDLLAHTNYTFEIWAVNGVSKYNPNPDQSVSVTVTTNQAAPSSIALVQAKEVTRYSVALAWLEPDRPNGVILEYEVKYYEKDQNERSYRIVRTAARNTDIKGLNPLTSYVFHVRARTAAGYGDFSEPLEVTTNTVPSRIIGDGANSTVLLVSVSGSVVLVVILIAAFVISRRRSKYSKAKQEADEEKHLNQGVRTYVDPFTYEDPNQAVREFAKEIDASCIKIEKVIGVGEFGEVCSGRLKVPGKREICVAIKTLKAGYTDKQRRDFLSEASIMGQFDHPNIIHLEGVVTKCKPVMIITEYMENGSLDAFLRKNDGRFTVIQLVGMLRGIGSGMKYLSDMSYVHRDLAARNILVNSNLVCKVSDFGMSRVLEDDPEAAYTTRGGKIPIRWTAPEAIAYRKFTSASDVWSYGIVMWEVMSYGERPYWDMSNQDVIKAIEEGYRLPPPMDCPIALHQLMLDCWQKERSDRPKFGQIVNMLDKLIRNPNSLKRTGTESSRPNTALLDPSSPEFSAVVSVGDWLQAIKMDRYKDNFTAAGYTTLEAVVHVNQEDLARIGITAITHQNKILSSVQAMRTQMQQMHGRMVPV
The target in assay [5] is Ribosomal protein S6 kinase alpha-2 (Homo sapiens) (UniProt Q15349). In words: Inhibition of C-terminal kinase domain RPS6KA2 (unknown origin) assessed as remaining activity at 1 uM by Kinome scan method relative to control.
The target in assay [6] is Serine/threonine-protein kinase ULK2 (Homo sapiens) (UniProt Q8IYT8). In words: Inhibition of ULK2 (unknown origin) assessed as remaining activity at 1 uM by Kinome scan method relative to control.
Sequence of Serine/threonine-protein kinase ULK2 (Homo sapiens) (Q8IYT8 whole entry): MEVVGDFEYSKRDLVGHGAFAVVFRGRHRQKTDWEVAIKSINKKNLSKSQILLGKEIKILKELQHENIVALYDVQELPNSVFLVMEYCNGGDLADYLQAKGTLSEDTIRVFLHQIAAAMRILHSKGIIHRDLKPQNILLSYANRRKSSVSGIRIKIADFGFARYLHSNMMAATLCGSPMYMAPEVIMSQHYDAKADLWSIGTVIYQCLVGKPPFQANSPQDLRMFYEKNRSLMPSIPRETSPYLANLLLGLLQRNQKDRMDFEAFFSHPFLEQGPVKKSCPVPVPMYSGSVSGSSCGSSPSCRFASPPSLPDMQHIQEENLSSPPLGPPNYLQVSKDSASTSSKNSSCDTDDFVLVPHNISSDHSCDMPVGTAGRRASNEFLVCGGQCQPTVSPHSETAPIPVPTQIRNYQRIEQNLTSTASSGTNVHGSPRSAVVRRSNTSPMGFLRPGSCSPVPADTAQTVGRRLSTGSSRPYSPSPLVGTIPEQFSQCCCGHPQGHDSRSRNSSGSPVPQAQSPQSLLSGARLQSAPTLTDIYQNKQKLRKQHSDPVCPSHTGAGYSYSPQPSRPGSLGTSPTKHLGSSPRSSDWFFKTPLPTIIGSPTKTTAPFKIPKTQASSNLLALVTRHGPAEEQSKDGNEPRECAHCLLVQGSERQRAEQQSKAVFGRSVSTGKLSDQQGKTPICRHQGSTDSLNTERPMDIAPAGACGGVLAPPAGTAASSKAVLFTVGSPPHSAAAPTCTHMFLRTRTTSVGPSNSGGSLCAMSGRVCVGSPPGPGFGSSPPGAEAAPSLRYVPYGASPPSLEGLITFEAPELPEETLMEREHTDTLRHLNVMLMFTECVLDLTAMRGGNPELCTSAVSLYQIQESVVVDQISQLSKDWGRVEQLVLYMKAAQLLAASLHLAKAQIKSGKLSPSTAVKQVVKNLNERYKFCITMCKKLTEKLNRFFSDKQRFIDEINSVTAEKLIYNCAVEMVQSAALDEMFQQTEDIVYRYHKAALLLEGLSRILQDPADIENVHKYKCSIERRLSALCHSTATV
Assay [7] has as its target Tyrosine-protein kinase Fer (Homo sapiens) (UniProt P16591). In words: Inhibition of FER (unknown origin) assessed as remaining activity at 1 uM by Kinome scan method relative to control.
Assay [8] has as its system Tyrosine-protein kinase ABL1 (Homo sapiens), P00519 [H396P]. In words: Inhibition of ABL1 H396P mutant (unknown origin) assessed as remaining activity at 1 uM by Kinome scan method relative to control.
The target in assay [9] is Dual specificity mitogen-activated protein kinase kinase 1 (Homo sapiens) (UniProt Q02750). The experiment in a line: Inhibition of MEK1 (unknown origin) assessed as remaining activity at 1 uM by Kinome scan method relative to control.
The nature of assay [10]: Anti-inflammatory activity against human derived medium respond PBMC cells assessed as inhibition in stimulated MCP-1 chemokine release incubated for 2 hrs in the presence of LPS/SEB/aCD28 by Luminex based sandwich immunoassay. It counts as functional, cell-based.
Assay [11] relates to Tyrosine-protein kinase ABL1 (Homo sapiens), P00519 [F317I]. In words: Inhibition of human ABL1 F317I mutant assessed as residual activity at 1 uM using Poly(Ala,Glu,Lys,Tyr)6:2:5:1 as substrate in presence of 33P-ATP by ProQinase assay relative to control.
Assay [12] concerns the target MAP kinase-activated protein kinase 5 (Homo sapiens) (UniProt Q8IW41). The experiment in a line: Inhibition of human MAPKAPK5 assessed as residual activity at 1 uM using RBER-CHKtide as substrate in presence of 33P-ATP by ProQinase assay relative to control.
Assay [13] in a line: Anti-inflammatory activity against human derived high respond PBMC cells assessed as inhibition in stimulated IL-1ra cytokine release incubated for 2 hrs in the presence of LPS/SEB/aCD28 by Luminex based sandwich immunoassay. Format: functional, cell-based.
Assay [14] concerns the target Glycogen synthase kinase-3 beta (Homo sapiens) (UniProt P49841). The experiment in a line: Inhibition of human GSK3beta assessed as residual activity at 1 uM using RBER-CHKtide as substrate in presence of 33P-ATP by ProQinase assay relative to control.
The target in assay [15] is Mitogen-activated protein kinase kinase kinase 2 (Homo sapiens) (UniProt Q9Y2U5). The experiment in a line: Inhibition of MAP3K2 (unknown origin) assessed as remaining activity at 1 uM by Kinome scan method relative to control.
Sequence of Mitogen-activated protein kinase kinase kinase 2 (Homo sapiens) (Q9Y2U5 whole entry): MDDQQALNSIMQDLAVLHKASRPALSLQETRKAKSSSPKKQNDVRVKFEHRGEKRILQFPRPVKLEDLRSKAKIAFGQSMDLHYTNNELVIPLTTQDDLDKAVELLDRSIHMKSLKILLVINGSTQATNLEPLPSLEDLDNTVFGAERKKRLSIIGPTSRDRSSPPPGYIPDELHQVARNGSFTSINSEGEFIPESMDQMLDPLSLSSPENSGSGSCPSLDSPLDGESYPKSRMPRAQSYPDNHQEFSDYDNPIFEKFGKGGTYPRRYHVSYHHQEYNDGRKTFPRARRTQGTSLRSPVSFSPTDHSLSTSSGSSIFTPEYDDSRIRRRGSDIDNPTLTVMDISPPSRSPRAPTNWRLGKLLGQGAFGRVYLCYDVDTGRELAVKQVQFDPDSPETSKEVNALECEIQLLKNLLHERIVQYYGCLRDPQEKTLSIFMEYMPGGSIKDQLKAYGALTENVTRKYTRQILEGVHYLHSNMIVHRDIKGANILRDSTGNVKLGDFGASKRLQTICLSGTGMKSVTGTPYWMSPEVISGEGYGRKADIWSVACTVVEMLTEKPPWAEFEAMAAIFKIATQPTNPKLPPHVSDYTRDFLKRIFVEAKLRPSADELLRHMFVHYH
For assay [16], the system named is Tyrosine-protein kinase ABL1 (Homo sapiens), P00519 [Y253F]. The experiment in a line: Inhibition of human ABL1 Y253F mutant assessed as residual activity at 1 uM using Poly(Ala,Glu,Lys,Tyr)6:2:5:1 as substrate in presence of 33P-ATP by ProQinase assay relative to control.
The target in assay [17] is Homeodomain-interacting protein kinase 1 (Homo sapiens) (UniProt Q86Z02). The experiment in a line: Inhibition of human HIPK1 assessed as residual activity at 1 uM using RBER-CHKtide as substrate in presence of 33P-ATP by ProQinase assay relative to control.
Sequence of Homeodomain-interacting protein kinase 1 (Homo sapiens) (Q86Z02 whole entry, looked up): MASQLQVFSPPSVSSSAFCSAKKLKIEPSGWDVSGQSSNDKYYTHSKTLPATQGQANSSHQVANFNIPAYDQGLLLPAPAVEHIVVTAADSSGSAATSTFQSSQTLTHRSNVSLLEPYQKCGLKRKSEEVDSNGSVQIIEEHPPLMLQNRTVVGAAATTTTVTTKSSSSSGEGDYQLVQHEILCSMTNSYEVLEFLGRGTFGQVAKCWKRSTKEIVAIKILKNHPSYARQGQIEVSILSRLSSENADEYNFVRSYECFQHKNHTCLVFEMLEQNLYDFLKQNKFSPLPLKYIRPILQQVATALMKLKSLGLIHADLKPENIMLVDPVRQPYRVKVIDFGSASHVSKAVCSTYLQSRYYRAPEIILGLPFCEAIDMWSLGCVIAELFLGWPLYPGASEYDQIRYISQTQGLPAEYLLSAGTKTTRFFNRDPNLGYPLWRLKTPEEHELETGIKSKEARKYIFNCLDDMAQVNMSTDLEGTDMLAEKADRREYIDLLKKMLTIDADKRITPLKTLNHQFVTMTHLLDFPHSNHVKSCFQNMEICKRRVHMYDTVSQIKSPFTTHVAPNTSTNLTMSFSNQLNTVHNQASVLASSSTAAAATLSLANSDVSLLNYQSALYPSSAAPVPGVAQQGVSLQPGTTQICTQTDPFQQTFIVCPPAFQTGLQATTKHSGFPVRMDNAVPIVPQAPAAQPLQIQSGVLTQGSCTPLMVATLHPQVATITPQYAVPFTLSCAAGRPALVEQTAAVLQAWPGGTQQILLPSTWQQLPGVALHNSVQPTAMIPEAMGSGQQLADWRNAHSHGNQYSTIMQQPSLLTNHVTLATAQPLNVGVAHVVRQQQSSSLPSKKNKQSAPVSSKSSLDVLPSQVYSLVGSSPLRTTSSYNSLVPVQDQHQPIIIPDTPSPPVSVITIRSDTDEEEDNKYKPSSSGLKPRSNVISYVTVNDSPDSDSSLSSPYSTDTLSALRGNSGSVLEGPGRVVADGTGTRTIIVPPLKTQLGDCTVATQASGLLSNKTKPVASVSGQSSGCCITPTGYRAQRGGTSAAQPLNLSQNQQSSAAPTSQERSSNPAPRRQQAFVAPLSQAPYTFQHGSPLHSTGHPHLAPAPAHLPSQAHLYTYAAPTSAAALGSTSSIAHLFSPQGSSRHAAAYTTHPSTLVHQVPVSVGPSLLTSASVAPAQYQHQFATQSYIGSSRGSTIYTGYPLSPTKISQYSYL
The test system of assay [18] is Receptor-type tyrosine-protein kinase FLT3 (Homo sapiens), P36888 [K663Q]. The experiment in a line: Inhibition of FLT3 K663Q mutant (unknown origin) assessed as remaining activity at 1 uM by Kinome scan method relative to control.
Assay [19] has as its target Serine/threonine-protein kinase TAO1 (Homo sapiens) (UniProt Q7L7X3). In words: Inhibition of TAOK1 (unknown origin) assessed as remaining activity at 1 uM by Kinome scan method relative to control.
Assay [20] concerns the target Glycogen synthase kinase-3 alpha (Homo sapiens) (UniProt P49840). The experiment in a line: Inhibition of GSK3alpha (unknown origin) assessed as remaining activity at 1 uM by Kinome scan method relative to control.
A short description of assay [21]: Anti-inflammatory activity against human derived high respond PBMC cells assessed as inhibition in stimulated INFgamma cytokine release incubated for 2 hrs in the presence of LPS/SEB/aCD28 by Luminex based sandwich immunoassay. It counts as functional, cell-based.
Assay [22] concerns the target T1, Serine/threonine-protein kinase BRSK1 (Homo sapiens) (UniProt Q8TDC3).
T1 sequence (whole entry): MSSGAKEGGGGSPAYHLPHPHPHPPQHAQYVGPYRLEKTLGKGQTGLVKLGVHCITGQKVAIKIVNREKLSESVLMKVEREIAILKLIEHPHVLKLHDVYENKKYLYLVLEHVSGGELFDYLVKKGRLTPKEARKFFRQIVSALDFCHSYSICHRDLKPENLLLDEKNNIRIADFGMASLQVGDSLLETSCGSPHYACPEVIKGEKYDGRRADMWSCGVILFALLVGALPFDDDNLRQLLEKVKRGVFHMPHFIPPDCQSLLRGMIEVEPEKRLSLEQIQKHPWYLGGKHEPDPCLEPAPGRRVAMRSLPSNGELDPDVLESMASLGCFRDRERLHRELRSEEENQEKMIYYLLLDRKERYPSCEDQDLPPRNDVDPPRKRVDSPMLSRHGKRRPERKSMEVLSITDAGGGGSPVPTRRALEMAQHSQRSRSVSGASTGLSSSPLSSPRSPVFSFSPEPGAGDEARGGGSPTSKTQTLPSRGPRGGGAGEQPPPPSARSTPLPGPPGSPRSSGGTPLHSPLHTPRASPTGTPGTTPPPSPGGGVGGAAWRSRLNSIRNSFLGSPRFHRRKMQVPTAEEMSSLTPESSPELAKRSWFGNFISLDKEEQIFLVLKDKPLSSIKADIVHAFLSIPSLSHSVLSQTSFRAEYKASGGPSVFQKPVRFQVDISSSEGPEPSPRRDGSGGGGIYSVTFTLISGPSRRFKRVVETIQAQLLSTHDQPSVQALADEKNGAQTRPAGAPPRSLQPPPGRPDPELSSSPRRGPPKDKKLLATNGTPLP
In words: Inhibition of human BRSK1 assessed as residual activity at 1 uM using RBER-CHKtide as substrate in presence of 33P-ATP by ProQinase assay relative to control.

Sequence of Phosphatidylinositol 4,5-bisphosphate 3-kinase catalytic subunit alpha isoform (Homo sapiens) (P42336 whole entry, canonical isoform): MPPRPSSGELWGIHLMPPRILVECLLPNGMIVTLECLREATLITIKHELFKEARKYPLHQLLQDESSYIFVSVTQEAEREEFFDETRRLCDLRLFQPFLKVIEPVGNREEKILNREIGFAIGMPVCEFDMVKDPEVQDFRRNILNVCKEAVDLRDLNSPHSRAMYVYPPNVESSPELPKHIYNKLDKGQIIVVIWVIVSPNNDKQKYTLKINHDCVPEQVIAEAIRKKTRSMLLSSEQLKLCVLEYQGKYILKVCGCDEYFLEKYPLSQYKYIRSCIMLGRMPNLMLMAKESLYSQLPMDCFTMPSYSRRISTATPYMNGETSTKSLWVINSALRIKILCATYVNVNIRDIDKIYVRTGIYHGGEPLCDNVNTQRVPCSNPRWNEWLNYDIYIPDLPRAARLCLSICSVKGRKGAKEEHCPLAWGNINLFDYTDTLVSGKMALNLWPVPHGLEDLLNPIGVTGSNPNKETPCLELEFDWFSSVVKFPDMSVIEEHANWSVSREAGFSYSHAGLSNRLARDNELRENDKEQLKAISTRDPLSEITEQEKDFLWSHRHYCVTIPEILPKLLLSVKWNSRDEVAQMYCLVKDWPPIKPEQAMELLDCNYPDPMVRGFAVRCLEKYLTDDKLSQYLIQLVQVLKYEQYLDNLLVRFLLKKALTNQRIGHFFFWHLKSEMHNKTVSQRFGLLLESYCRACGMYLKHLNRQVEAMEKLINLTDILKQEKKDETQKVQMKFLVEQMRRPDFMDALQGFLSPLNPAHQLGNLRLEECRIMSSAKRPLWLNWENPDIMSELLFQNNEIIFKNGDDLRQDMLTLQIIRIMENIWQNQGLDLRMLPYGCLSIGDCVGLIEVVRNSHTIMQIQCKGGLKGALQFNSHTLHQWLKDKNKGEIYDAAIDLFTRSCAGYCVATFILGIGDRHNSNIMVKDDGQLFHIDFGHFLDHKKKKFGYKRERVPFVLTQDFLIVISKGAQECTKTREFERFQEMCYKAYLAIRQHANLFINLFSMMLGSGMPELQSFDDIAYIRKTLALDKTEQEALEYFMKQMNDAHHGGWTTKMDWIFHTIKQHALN

The term IC50 denotes the concentration that inhibits the measured activity by half. As to `O=C1c2ccc(Nc3ccc(F)cc3F)cc2CCc2ccc(OC[C@H](O)CO)cc21` [Skepinone-L], the Activity in assay [1] was 88%; in [2], 100%; in [3] it was 97%; in assay [4] it was 100%; in [5] it was 100%; in assay [6], 100%. Further, the Activity amounted to 100% in [7]; 100% in assay [8]; 86% in assay [9]; 102% in [11]; 97% in [12]; 97% in [14]. Further, the Activity in assay [15] is 100%; in assay [16] it was 88%; in assay [17], 98%; in [18], 98%; in assay [19] it was 100%; in assay [20], 100%. In [22], the Activity was 94%. In addition, the half-maximal inhibitory concentration (IC50) in [10] worked out at 90 nM; in assay [13] it was 200 nM; in assay [21], 60 nM.
